Target: P. falciparum apicoplast DNA polymerase (Pf-apPOL) (Plasmodium falciparum, UniProt Q8ILY1)
Experiment: Fluorescence-based high-throughput DNA polymerase assay (molecular beacon), primary screen and dose-response;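 as to % inhibition ApPOL 90': test concentration in µM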;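 as to % inhibition apPOL 180': test concentration in µM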
Type: biochemical
Outline: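 Single-point screening used 10 µM compound with 20 nM polymerase, 20 nM hairpin substrate and 6 µM dNTPs for 90 min at 25 °C. Confirmatory titrations (2.5–80 µM) followed fluorescence at three times, and IC50 was derived from a fit including a cooperativity term n.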

[1] = primary screen value of the 186 hits; unit not given; 90 min, 10 µM

P. falciparum apicoplast DNA polymerase (Pf-apPOL), sequence (Q8ILY1 entry or part of it): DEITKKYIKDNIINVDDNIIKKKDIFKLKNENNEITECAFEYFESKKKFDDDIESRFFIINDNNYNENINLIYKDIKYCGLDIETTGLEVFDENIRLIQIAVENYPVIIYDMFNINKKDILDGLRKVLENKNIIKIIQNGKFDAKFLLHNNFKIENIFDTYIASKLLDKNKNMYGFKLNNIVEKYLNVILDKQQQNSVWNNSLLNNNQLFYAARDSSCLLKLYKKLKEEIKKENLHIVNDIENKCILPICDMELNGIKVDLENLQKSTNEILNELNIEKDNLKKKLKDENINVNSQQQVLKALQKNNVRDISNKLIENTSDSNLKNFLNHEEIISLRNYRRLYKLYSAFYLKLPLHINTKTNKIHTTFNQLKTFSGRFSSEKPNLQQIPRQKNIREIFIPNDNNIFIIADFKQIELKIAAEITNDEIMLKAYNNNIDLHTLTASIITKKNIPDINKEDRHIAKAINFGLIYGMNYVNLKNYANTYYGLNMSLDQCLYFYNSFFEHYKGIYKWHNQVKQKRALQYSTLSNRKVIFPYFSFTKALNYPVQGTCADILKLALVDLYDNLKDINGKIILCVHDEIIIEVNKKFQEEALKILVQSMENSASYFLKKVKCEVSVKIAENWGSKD

Compound: O=C(NCC1CCN(C2CCCC2)CC1)C(=O)NC1CCCC1 [KU0199596]
- % inhibition Apo pol 10' (DRC-1; 10'; concentration 2.5): 0.01298%
- % inhibition Apo pol 10' (DRC-1; 10'; concentration 5): -3.723%
- % inhibition Apo pol 10' (DRC-1; 10'; concentration 10): 11.8369%
- % inhibition Apo pol 10' (DRC-1; 10'; concentration 20): 30.2117%
- % inhibition Apo pol 10' (DRC-1; 10'; concentration 40): 52.3157%
- % inhibition Apo pol 10' (DRC-1; 10'; concentration 80): 62.5585%
- % inhibition Apol 90' (DRC-1; 90'; concentration 2.5): 3.739%
- % inhibition Apol 90' (DRC-1; 90'; concentration 5): 4.197%
- % inhibition Apol 90' (DRC-1; 90'; concentration 10): 23.1731%
- % inhibition Apol 90' (DRC-1; 90'; concentration 20): 45.2225%
- % inhibition Apol 90' (DRC-1; 90'; concentration 40): 64.9359%
- % inhibition Apol 90' (DRC-1; 90'; concentration 80): 71.081%
- % inhibition apPOL 180' (DRC-1; 180'; concentration 2.5): 10.6167%
- % inhibition apPOL 180' (DRC-1; 180'; concentration 5): 16.0151%
- % inhibition apPOL 180' (DRC-1; 180'; concentration 10): 39.3373%
- % inhibition apPOL 180' (DRC-1; 180'; concentration 20): 63.8149%
- % inhibition apPOL 180' (DRC-1; 180'; concentration 40): 81.7381%
- % inhibition apPOL 180' (DRC-1; 180'; concentration 80): 87.3658%
- % inhibition Apo pol 5' (DRC-2; 5'; concentration 2.5): 6%
- % inhibition Apo pol 5' (DRC-2; 5'; concentration 5): 9%
- % inhibition Apo pol 5' (DRC-2; 5'; concentration 10): 24%
- % inhibition Apo pol 5' (DRC-2; 5'; concentration 20): 35%
- % inhibition Apo pol 5' (DRC-2; 5'; concentration 40): 45%
- % inhibition Apo pol 5' (DRC-2; 5'; concentration 80): 45%
- % inhibition Apol 40' (DRC-2; 40'; concentration 2.5): 2.8%
- % inhibition Apol 40' (DRC-2; 40'; concentration 5): -3%
- % inhibition Apol 40' (DRC-2; 40'; concentration 10): 21%
- % inhibition Apol 40' (DRC-2; 40'; concentration 20): 34%
- % inhibition Apol 40' (DRC-2; 40'; concentration 40): 44%
- % inhibition Apol 40' (DRC-2; 40'; concentration 80): 41%
- % inhibition ApPOL 90' (DRC-2; 90'; concentration 2.5): 2.29%
- % inhibition ApPOL 90' (DRC-2; 90'; concentration 5): -11%
- % inhibition ApPOL 90' (DRC-2; 90'; concentration 10): 19%
- % inhibition ApPOL 90' (DRC-2; 90'; concentration 20): 30%
- % inhibition ApPOL 90' (DRC-2; 90'; concentration 40): 40%
- % inhibition ApPOL 90' (DRC-2; 90'; concentration 80): 39%
- % inhibition apPOL 180' (DRC-2; 180'; concentration 2.5): -0.788%
- % inhibition apPOL 180' (DRC-2; 180'; concentration 5): -84%
- % inhibition apPOL 180' (DRC-2; 180'; concentration 10): 8%
- % inhibition apPOL 180' (DRC-2; 180'; concentration 20): 16%
- % inhibition apPOL 180' (DRC-2; 180'; concentration 40): 30%
- % inhibition apPOL 180' (DRC-2; 180'; concentration 80): 34%
- % inhibition Apol 40' (conc. 20; 40'; DRC-2): 34%
- % inhibition ApPOL 90' (conc. 20; 90'; DRC-2): 30%
- % inhibition Apo pol 5' (conc. 40; 5'; DRC-2): 45%
- % inhibition apPOL 180' (conc. 40; 180'; DRC-2): 30%
- % inhibition Apo pol 5' (conc. 80; 5'; DRC-2): 45%
- % inhibition apPOL 180' (conc. 80; 180'; DRC-2): 34%
- DNA Pol (primary screen value by plate and well; 90 min, 10 µM): 24
- DNA Pol [1]: 24

Compound: CSCCC(C)(O)CNC(=O)C1CC1 (centres unmarked) [KU0200150]
- DNA Pol ('DNA Pol'; screening value, unit not given; 90 min, 10 µM): 33
- % inhibition Apo pol 10' (DRC-1; 10'; concentration 2.5): 4.373%
- % inhibition Apo pol 10' (DRC-1; 10'; concentration 5): 5.1384%
- % inhibition Apo pol 10' (DRC-1; 10'; concentration 10): 19.1529%
- % inhibition Apo pol 10' (DRC-1; 10'; concentration 20): 27.3456%
- % inhibition Apo pol 10' (DRC-1; 10'; concentration 40): 40.4484%
- % inhibition Apo pol 10' (DRC-1; 10'; concentration 80): 39.3482%
- % inhibition Apol 90' (DRC-1; 90'; concentration 2.5): 7.582%
- % inhibition Apol 90' (DRC-1; 90'; concentration 5): 12.5551%
- % inhibition Apol 90' (DRC-1; 90'; concentration 10): 30.4266%
- % inhibition Apol 90' (DRC-1; 90'; concentration 20): 38.5831%
- % inhibition Apol 90' (DRC-1; 90'; concentration 40): 51.9729%
- % inhibition Apol 90' (DRC-1; 90'; concentration 80): 47.9472%
- % inhibition apPOL 180' (DRC-1; 180'; concentration 2.5): 8.962%
- % inhibition apPOL 180' (DRC-1; 180'; concentration 5): 14.7367%
- % inhibition apPOL 180' (DRC-1; 180'; concentration 10): 36.1682%
- % inhibition apPOL 180' (DRC-1; 180'; concentration 20): 43.4388%
- % inhibition apPOL 180' (DRC-1; 180'; concentration 40): 54.9454%
- % inhibition apPOL 180' (DRC-1; 180'; concentration 80): 46.3242%
- % inhibition Apo pol 5' (DRC-2, 5', concentration 2.5): 0.182%
- % inhibition Apo pol 5' (DRC-2, 5', concentration 5): 4.75%
- % inhibition Apo pol 5' (DRC-2, 5', concentration 10): 22%
- % inhibition Apo pol 5' (DRC-2, 5', concentration 20): 24%
- % inhibition Apo pol 5' (DRC-2, 5', concentration 40): 29%
- % inhibition Apo pol 5' (DRC-2, 5', concentration 80): 27%
- % inhibition Apol 40' (DRC-2, 40', concentration 2.5): 3.34%
- % inhibition Apol 40' (DRC-2, 40', concentration 5): 11%
- % inhibition Apol 40' (DRC-2, 40', concentration 10): 28%
- % inhibition Apol 40' (DRC-2, 40', concentration 20): 33%
- % inhibition Apol 40' (DRC-2, 40', concentration 40): 41%
- % inhibition Apol 40' (DRC-2, 40', concentration 80): 41%
- % inhibition ApPOL 90' (DRC-2, 90', concentration 2.5): 3.4%
- % inhibition ApPOL 90' (DRC-2, 90', concentration 5): 11%
- % inhibition ApPOL 90' (DRC-2, 90', concentration 10): 27%
- % inhibition ApPOL 90' (DRC-2, 90', concentration 20): 30%
- % inhibition ApPOL 90' (DRC-2, 90', concentration 40): 42%
- % inhibition ApPOL 90' (DRC-2, 90', concentration 80): 41%
- % inhibition apPOL 180' (DRC-2, 180', concentration 2.5): 0.149%
- % inhibition apPOL 180' (DRC-2, 180', concentration 5): 5%
- % inhibition apPOL 180' (DRC-2, 180', concentration 10): 17%
- % inhibition apPOL 180' (DRC-2, 180', concentration 20): 18%
- % inhibition apPOL 180' (DRC-2, 180', concentration 40): 32%
- % inhibition apPOL 180' (DRC-2, 180', concentration 80): 32%
- % inhibition Apol 40' (conc 5 (unit not given); 40'; DRC-2): 11%
- % inhibition ApPOL 90' (conc 5 (unit not given); 90'; DRC-2): 11%
- % inhibition ApPOL 90' (conc 10 (unit not given); 90'; DRC-2): 27%
- % inhibition Apol 40' (conc 40 (unit not given); 40'; DRC-2): 41%
- % inhibition apPOL 180' (conc 40 (unit not given); 180'; DRC-2): 32%
- % inhibition Apo pol 5' (conc 80 (unit not given); 5'; DRC-2): 27%
- % inhibition Apol 40' (conc 80 (unit not given); 40'; DRC-2): 41%
- % inhibition ApPOL 90' (conc 80 (unit not given); 90'; DRC-2): 41%
- % inhibition apPOL 180' (conc 80 (unit not given); 180'; DRC-2): 32%
- DNA Pol (primary screen hit value, DNA Pol (186 hits); 90 min, 10 µM): 33

Compound: CCc1ccccc1NC(=O)c1ccc(-c2ncccc2NC(C)=O)cc1 [KU0203112]
- % inhibition Apo pol 10' (DRC-1; concentration 2.5; 10'): 16.2237%
- % inhibition Apol 90' (DRC-1; concentration 2.5; 90'): 2.255%
- % inhibition apPOL 180' (DRC-1; concentration 2.5; 180'): -4.969%
- % inhibition Apo pol 10' (DRC-1; concentration 5; 10'): 20.5956%
- % inhibition Apol 90' (DRC-1; concentration 5; 90'): 6.528%
- % inhibition apPOL 180' (DRC-1; concentration 5; 180'): -1.7806%
- % inhibition Apo pol 10' (DRC-1; concentration 10; 10'): 40.7013%
- % inhibition Apol 90' (DRC-1; concentration 10; 90'): 22.2992%
- % inhibition apPOL 180' (DRC-1; concentration 10; 180'): 9.63%
- % inhibition Apo pol 10' (DRC-1; concentration 20; 10'): 66.0159%
- % inhibition Apol 90' (DRC-1; concentration 20; 90'): 44.8534%
- % inhibition apPOL 180' (DRC-1; concentration 20; 180'): 25.9288%
- % inhibition Apo pol 10' (DRC-1; concentration 40; 10'): 83.2179%
- % inhibition Apol 90' (DRC-1; concentration 40; 90'): 72.954%
- % inhibition apPOL 180' (DRC-1; concentration 40; 180'): 58.4495%
- % inhibition Apo pol 10' (DRC-1; concentration 80 (unit not given); 10'): 89.6121%
- % inhibition Apol 90' (DRC-1; concentration 80; 90'): 90.3611%
- % inhibition apPOL 180' (DRC-1; concentration 80; 180'): 89.009%
- % inhibition ApPOL 90' (DRC-2; 90'; concentration 40): 70%
- % inhibition apPOL 180' (DRC-2; 180'; concentration 40): 70%
- % inhibition Apo pol 5' (DRC-2; concentration 2.5; 5'): 0.547%
- % inhibition Apol 40' (DRC-2; concentration 2.5; 40'): 0.556%
- % inhibition ApPOL 90' (DRC-2; concentration 2.5; 90'): -1.65%
- % inhibition apPOL 180' (DRC-2; concentration 2.5; 180'): -5.44%
- % inhibition Apo pol 5' (DRC-2; concentration 5; 5'): 5.51%
- % inhibition Apol 40' (DRC-2; concentration 5; 40'): 7%
- % inhibition ApPOL 90' (DRC-2; concentration 5; 90'): 5.44%
- % inhibition apPOL 180' (DRC-2; concentration 5; 180'): -1.68%
- % inhibition Apo pol 5' (DRC-2; concentration 10; 5'): 27%
- % inhibition Apol 40' (DRC-2; concentration 10; 40'): 28%
- % inhibition ApPOL 90' (DRC-2; concentration 10; 90'): 25%
- % inhibition apPOL 180' (DRC-2; concentration 10; 180'): 14%
- % inhibition Apo pol 5' (DRC-2; concentration 20; 5'): 43%
- % inhibition Apol 40' (DRC-2; concentration 20; 40'): 54%
- % inhibition ApPOL 90' (DRC-2; concentration 20; 90'): 52%
- % inhibition apPOL 180' (DRC-2; concentration 20; 180'): 41%
- % inhibition Apo pol 5' (DRC-2; concentration 40; 5'): 50%
- % inhibition Apol 40' (DRC-2; concentration 40; 40'): 68%
- % inhibition ApPOL 90' (DRC-2; concentration 40; 90'): 70%
- % inhibition apPOL 180' (DRC-2; concentration 40; 180'): 70%
- % inhibition Apo pol 5' (DRC-2; concentration 80; 5'): 47%
- % inhibition Apol 40' (DRC-2; concentration 80; 40'): 69%
- % inhibition ApPOL 90' (DRC-2; concentration 80; 90'): 74%
- % inhibition apPOL 180' (DRC-2; concentration 80; 180'): 77%
- DNA Pol [1]: 26
- DNA Pol (primary screen value; head prints only 'DNA Pol'; 90 min, 10 µM): 26
